In patent US20250206732A1, “COMPOUNDS AND METHODS FOR THE TARGETED DEGRADATION OF KRAS” (Arvinas Operations, Inc., priority 2022, published 2025):

Biological target: T1, AsPC-1 HiBiT-KRASG12D (Homo sapiens, UniProt P01116, G12D)
T1 construct: insert the HiBiT tag onto the N-terminus of one or more of the endogenous KRAS alleles; endogenous in cells; host or cells: AsPC-1 (ATCC CRL-1682), CRISPR-Cas9 knock-in clone, one tagged allele
Assay: HiBiT degradation assay (G12D), AsPC-1 HiBiT-KRASG12D cells
Format: cell-based
Conditions: 24 hours treatment; for Dmax: ASPC1, AsPC-1 HiBiT-KRASG12D cells, maximum degradation observed; for DC50: AsPC-1 HiBiT-KRASG12D cells, HiBiT luminescence
Summary of the method: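 AsPC-1 cells (homozygous G12D) carrying a CRISPR knock-in N-terminal HiBiT tag on endogenous KRAS were treated with compounds for 24 hours at 37° C, 5% CO2, in triplicate. Alamar blue viability was read first, then cells were washed and lysed with Nano-Glo HiBiT reagent for 45 minutes before luminescence reading.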

T1 sequence (P01116 1-188 isoform P01116-2 G12D): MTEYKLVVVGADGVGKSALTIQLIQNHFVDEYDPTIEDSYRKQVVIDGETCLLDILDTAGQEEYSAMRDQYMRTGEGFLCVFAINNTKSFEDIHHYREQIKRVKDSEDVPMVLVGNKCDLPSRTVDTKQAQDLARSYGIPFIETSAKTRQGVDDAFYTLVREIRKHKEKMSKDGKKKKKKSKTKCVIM

SMILES	Dmax	DC50
CCc1cccc2cc(O)cc(-c3ncc4c(N5CC6CCC(C5)N6)nc(OC[C@@H]5CN(CC6CN(c7cc([C@@H](C(=O)N8C[C@H](O)C[C@H]8C(=O)N[C@@H](C)c8ccc(-c9scnc9C)cc8)C(C)C)on7)C6)CCN5C)nc4c3F)c12 [Compound 164, (2S,4R)-1-[(2S)-2-[3-(3-{[(3S)-3-{[(4-{3,8-diazabicyclo[3.2.1]octan-3-yl}-7-(8-ethyl-3-hydroxynaphthalen-1-yl)-8-fluoropyrido[4,3-d]pyrimidin-2-yl)oxy]methyl}-4-methylpiperazin-1-yl]methyl}azetidin-1-yl)-1,2-oxazol-5-yl]-3-methylbutanoyl]-4-hydroxy-N-[(1S)-1-[4-(4-methyl-1,3-thiazol-5-yl)phenyl]ethyl]pyrrolidine-2-carboxamide]	20 to 60%	> 3000 nM
CCc1cccc2cc(O)cc(-c3ncc4c(N5CC6CCC(C5)N6)nc(N5CC(N6CCC(CC7CN(c8cc([C@H](C(=O)N9C[C@H](O)C[C@H]9C(=O)N[C@@H](C)c9ccc(-c%10scnc%10C)cc9)C(C)C)on8)C7)CC6)C5)nc4c3F)c12 [Compound 165]	20 to 60%	< 600 nM
CCc1cccc2cc(O)cc(-c3ncc4c(N5CC6CCC(C5)N6)nc(OC5CCN(CC6CCN(c7cc([C@H](C(=O)N8C[C@H](O)C[C@H]8C(=O)N[C@@H](C)c8ccc(-c9scnc9C)cc8)C(C)C)on7)CC6)CC5)nc4c3F)c12 [Compound 166, (2S,4R)-1-[(2R)-2-{3-[4-({4-[(4-{3,8-diazabicyclo[3.2.1]octan-3-yl}-7-(8-ethyl-3-hydroxynaphthalen-1-yl)-8-fluoropyrido[4,3-d]pyrimidin-2-yl)oxy]piperidin-1-yl}methyl)piperidin-1-yl]-1,2-oxazol-5-yl}-3-methylbutanoyl]-4-hydroxy-N-[(1S)-1-[4-(4-methyl-1,3-thiazol-5-yl)phenyl]ethyl]pyrrolidine-2-carboxamide]	20 to 60%	< 600 nM
CCc1cccc2cc(O)cc(-c3ncc4c(N5CC6CCC(C5)N6)nc(OC5CCN(CC6CCN(c7cc([C@@H](C(=O)N8C[C@H](O)C[C@H]8C(=O)N[C@@H](C)c8ccc(-c9scnc9C)cc8)C(C)C)on7)CC6)CC5)nc4c3F)c12 [Compound 167, (2S,4R)-1-[(2S)-2-{3-[4-({4-[(4-{3,8-diazabicyclo[3.2.1]octan-3-yl}-7-(8-ethyl-3-hydroxynaphthalen-1-yl)-8-fluoropyrido[4,3-d]pyrimidin-2-yl)oxy]piperidin-1-yl}methyl)piperidin-1-yl]-1,2-oxazol-5-yl}-3-methylbutanoyl]-4-hydroxy-N-[(1S)-1-[4-(4-methyl-1,3-thiazol-5-yl)phenyl]ethyl]pyrrolidine-2-carboxamide]	20 to 60%	1000 to 3000 nM
C#Cc1c(F)ccc2cc(O)cc(-c3ncc4c(N5CC6CCC(C5)N6)nc(OCCN5CCC(CC6CCN(c7cc([C@H](C(=O)N8C[C@H](O)C[C@H]8C(=O)N[C@@H](C)c8ccc(-c9ccnn9C)cc8)C(C)C)on7)CC6)CC5)nc4c3F)c12 [Compound 168, (2S,4R)-1-[(2R)-2-(3-{4-[(1-{2-[(4-{3,8-diazabicyclo[3.2.1]octan-3-yl}-7-(8-ethynyl-7-fluoro-3-hydroxynaphthalen-1-yl)-8-fluoropyrido[4,3-d]pyrimidin-2-yl)oxy]ethyl}piperidin-4-yl)methyl]piperidin-1-yl}-1,2-oxazol-5-yl)-3-methylbutanoyl]-4-hydroxy-N-[(1S)-1-[4-(1-methyl-1H-pyrazol-5-yl)phenyl]ethyl]pyrrolidine-2-carboxamide]	80 to 100%	< 600 nM
